Consider one compound from patent publication US8748395B2, “Cell-permeable peptide inhibitors of the JNK signal transduction pathway” (Xigen Inflammation Ltd., priority 2006, dated 2014).

Test [1] deals with recombinant JNK1, JNK2 and JNK3. Description: Solid phase kinase assay: JNK-mediated phosphorylation of c-Jun, ATF2 and Elk1. The class given is biochemical. Conditions: GST-Jun (aa 1-73), 0-250 μM dosage study; fold less efficient. On the procedure:
The effects of the peptides on JNKs-mediated phosphorylation of their target transcription factors were investigated in vitro. Recombinant and non activated JNK1, JNK2 and JNK3 were produced using a TRANSCRIPTION AND TRANSLATION rabbit reticulocyte lysate kit (PROMEGA®) and used in solid phase kinase assays with c-jun, ATF2 and Elk1, either alone or fused to glutathione-S-transferase (GST), as substrates. Dose response studies were performed wherein inventive L-TAT or L-TAT-IB1(s) peptides (0-25 μM) were mixed with the recombinant JNK1, JNK2, or JNK3 kinases in reaction buffer (20 mM Tris-acetate, 1 mM EGTA, 10 mM p-nitrophenyl-phosphate (pNPP), 5 mM sodium pyrophosphate, 10 mM p-glycerophosphate, 1 mM dithiothreitol) for 20 minutes. The kinase reactions were then initiated by the addition of 10 mM MgCl2 and 5 pCi^33P-γ-dATP and 1 μg of either GST-Jun (aa 1-89), GST-AFT2 (aa 1-96) or GST-ELK1 (aa 307-428). GST-fusion proteins were purchased from Stratagene (La Jolla, Calif.).
Ten μL of glutathione-agarose beads were also added to the mixture. Reaction products were then separated by SDS-PAGE on a denaturing 10% polyacrylamide gel. Gels were dried and subsequently exposed to X-ray films (Kodak).
The ability of D-TAT, inventive D-TAT-IB1(s) and inventive L-TAT-IB1 (s) peptides (0-250 μM dosage study) to inhibit GST-Jun (aa 1-73) phosphorylation by recombinant JNK1, JNK2, and JNK3 by were analyzed as described above. Overall, D-TAT-IB1(s) peptide decreased JNK-mediated phosphorylation of c-Jun, but at levels approximately 10-20 fold less efficiently than L-TAT-IB1(s).

The test system of test [2] is cortical neuronal culture. Description: LDH release from cortical neuronal cultures following NMDA stimulation. The class given is cell-based, rat. Conditions: 5 μM peptide, 30 min pre-treatment, 12 h of 100 μM NMDA. The protocol: The neuroprotective effect of the D-TAT-IB (generic)(s)/D-JNKI1 peptide (SEQ ID NO: 12) was evaluated in sister cultures pre-treated for 30 min with the indicated concentrations of peptides or MK-801 before continuous exposure to 100 μM NMDA.
Cortical neuronal culture. We dissected small pieces of cortex from the brains of two day old rat pups, incubated them with 200 units of papain for 30 min at 34° C., and then plated the neurons at densities of approximately 1×10^6 cells/plate on dishes pre-coated with 100 μg/ml poly-D-lysine. The plating medium consisted of B27/Neurobasal (Life Technologies, Gaithersburg, Md.) supplemented with 0.5 mM glutamine, 100 U/ml penicillin and 100 ug/ml streptomycin.
Lactate dehydrogenate (LDH) cytotoxicity assay. LDH released into the bathing medium 12, 24 and 48 h after NMDA administration was measured using the Cytotox 96 non- radioactive cytotoxicity assay kit (PROMEGA®, WI) (see FIG. 5).

Test [3] concerns endogenous JNK activity in HepG2 cells. Description: Inhibition of endogenous JNK activity in HepG2 cells, AlphaScreen all-in one well approach. Format: cell-based. On the procedure: HepG2 cells were seeded at 3'000 cells/well the day prior the experiment. Then, increasing concentrations of either interleukin-1β [IL-1β(ν)] or tumor necrosis factor α [TNFα(●)] (a) were added to activate JNK for 30 minutes. Cells were lysed in 20 mM Hepes, 0.5% Tween pH 7.4 and processed for AlphaScreen JNK. (b) Z′ for the JNK activity induced by 10 ng/ml IL-1β and measured in 384 wells/plate (n=96). (c) Inhibition of endogenous IL-1β-induced JNK activity with chemical JNK inhibitors [staurosporin (°) and SP600125 (●)]. (d) Effect of peptidic inhibitors L-TAT-IB1(s) according to SEQ ID NO: 9 [here abbreviated as L-JNKi (ν)) and D-TAT-IB1(s) according to SEQ ID NO: 11 (here abbreviated as D-JNKi (♦)) and JBDs (●) (corresponds to L-JNKI without the TAT sequence)] on IL-1α dependent JNK activity. All panels are representative of three independent experiments (n=3).
Methods: Alphascreen Kinase Assay
Principle: AlphaScreen is a non-radioactive bead-based technology used to study biomolecular interactions in a microplate format. The acronym ALPHA stands for Amplified Luminescence Proximity Homogenous Assay. […]
Kinase reagents (B-GST-cJun, anti P-cJun antibody and active JNK3) were first diluted in kinase buffer (20 mM Tris-HCl pH 7.6, 10 mM MgCl2, 1 mM DTT, 100 μM Na3VO4, 0.01% Tween-20) and added to wells (15 μl). […] AlphaScreen signal was analyzed directly on the Fusion or En Vision apparatus.
In general terms: Alpha assays give light when donor and acceptor beads are brought close together.

Square brackets hold non-standard residues; d marks the D form. Peptide text beside a SMILES is read from it.

Regarding `CC(C)C[C@@H](NC(=O)[C@@H](Cc1ccccc1)NC(=O)[C@H]1CCCN1C(=O)[C@@H](CCC(N)=O)NC(=O)[C@H](NC(=O)[C@H]1CCCN1C(=O)[C@@H](CCCNC(=N)N)NC(=O)[C@@H](CO)NC(=O)[C@@H](CCC(N)=O)NC(=O)[C@H](N)CC(=O)O)C(C)C)C(=O)N[C@H](CC(N)=O)C(=O)N[C@H](CC(C)C)C(=O)N[C@@H](C(=O)N[C@@H](C(=O)N1CCC[C@@H]1C(=O)N[C@H](CCCNC(=N)N)C(=O)N[C@H](CCCCN)C(=O)N1CCC[C@@H]1C(=O)N[C@H](CCCNC(=N)N)C(=O)N1CCC[C@@H]1C(=O)N1CCC[C@@H]1C(=O)N[C@H](CCCNC(=N)N)C(=O)N[C@H](CCCNC(=N)N)C(=O)N[C@H](CCCNC(=N)N)C(=O)N[C@H](CCC(N)=O)C(=O)N[C@H](CCCNC(=N)N)C(=O)N[C@H](CCCNC(=N)N)C(=O)N[C@H](CCCCN)C(=O)N[C@H](CCCCN)C(=O)N[C@H](CCCNC(=N)N)C(=O)NCC(=O)O)[C@H](C)O)[C@H](C)O` [D-TAT-IB1(s)] (H-[dD][dQ][dS][dR][dP][dV][dQ][dP][dF][dL][dN][dL][dT][dT][dP][dR][dK][dP][dR][dP][dP][dR][dR][dR][dQ][dR][dR][dK][dK][dR]G-OH), the “decrease of JNK-mediated phosphorylation of c-Jun, efficiency relative to L-TAT-IB1(s)” value in test [1] is given as 10-20 fold. Besides, the “degenerative changes due to NMDA exposure (LDH release above controls)” value in test [2] is listed as “degenerative changes due to NMDA exposure were completely inhibited”. The “inhibition of IL-1β-induced endogenous JNK activity” value in test [3] is “effectively inhibits JNK activity, even better than L-TAT-IB1(s)”.
